Columns and labels:
[1] = tested on: skin and shanks of broilers; experiment: Reflectance colorimetry and visual classification of skin and shanks of broilers; type: in vivo, broiler chickens (Ross 308, Ross 508); design: key to Shanks Visual Classification / Skin Visual Classification: −; (+); +; ++ = good color; o = orange; settings: for Shanks Chroma C*ab % of Controls / Shanks Color Hue h*ab % of Controls / Skin Chroma C*ab % of Controls / Skin Color Hue h*ab % of Controls / Shanks Chroma C*ab Value / Shanks Color Hue h*ab Value / Shanks Visual Classification / Skin Chroma C*ab Value / Skin Color Hue h*ab Value / Skin Visual Classification: dry carcasses; for chroma C*a*b* values in the skin and in the shanks / color hue h*a*b* in the skin and in the shanks / effectiveness in terms of concentration in the skin, and color intensity (chroma C*a*b*) in the skin and shanks: versus the control
Summary of the method: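 Ross broilers were fed a low-carotenoid basal diet (<2 mg xanthophylls/kg), then received pigment-supplemented diet for three weeks and were slaughtered on day 44. Back-skin colour (mean of three points) and shank colour (single reading) were measured by Minolta chromameter (D65, 0°) and reported as CIE L*a*b*, h* and C*, averaged over ten birds (5 male, 5 female).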

[2] = Carotenoid ester content and deposition rate in egg yolk of laying hens (HPLC); type: in vivo, laying hens (ISA Brown); design: Deposition Rate Value: unit not given here; settings: for Deposition Rate Target Values % of Controls / Ethyl β-apo-8′-carotenoate Equivalents % of Controls / Deposition Rate % of Controls / Deposition Rate Target Values / Ethyl β-apo-8′-carotenoate Equivalents / Deposition Rate Value: egg yolk; for Deposition Rate % of Controls / Deposition Rate Value: Table 9; for concentration in the egg yolk: versus the control
Summary of the method: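 Hens were first depleted for at least 28 days on a low-carotenoid basal diet (<2 mg total xanthophylls/kg, also the control diet), then fed mash supplemented with the pigments ad libitum for three weeks. Pooled homogenised yolk was extracted with ethanol/n-hexane and analysed by HPLC, calibrated with all-E ethyl β-apo-8′-carotenoate. Response factors were adjusted by molecular weight, and Z-isomers were corrected by a factor of 1.4.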

CC(C=CC=C(C)C=CC1=C(C)CCCC1(C)C)=CC=CC=C(C)C=CC=C(C)C(=O)OC(C)(C)C [compound (18), tert. butyl beta-apo-8′-carotenoate]
Shanks Chroma C*ab % of Controls ([1]; average over doses, Table 5): 113% | Shanks Color Hue h*ab % of Controls ([1]; average over doses, Table 5): 100% | Skin Chroma C*ab % of Controls ([1]; average over doses, Table 5): 115% | Skin Color Hue h*ab % of Controls ([1]; average over doses, Table 5): 105% | Shanks Chroma C*ab % of Controls ([1]; trial MC-24/99, 20 mg/kg feed): 114% | Shanks Chroma C*ab Value ([1]; trial MC-24/99, 20 mg/kg feed): 63 | Shanks Color Hue h*ab % of Controls ([1]; trial MC-24/99, 20 mg/kg feed): 100% | Shanks Color Hue h*ab Value ([1]; trial MC-24/99, 20 mg/kg feed): 84 | Shanks Visual Classification ([1]; trial MC-24/99, 20 mg/kg feed): + | Skin Chroma C*ab % of Controls ([1]; trial MC-24/99, 20 mg/kg feed): 116% | Skin Chroma C*ab Value ([1]; trial MC-24/99, 20 mg/kg feed): 38 | Skin Color Hue h*ab % of Controls ([1]; trial MC-24/99, 20 mg/kg feed): 107% | Skin Color Hue h*ab Value ([1]; trial MC-24/99, 20 mg/kg feed): 81 | Skin Visual Classification ([1]; trial MC-24/99, 20 mg/kg feed): + | Shanks Chroma C*ab % of Controls ([1]; trial MC-24/99, 30 mg/kg feed): 111% | Shanks Chroma C*ab Value ([1]; trial MC-24/99, 30 mg/kg feed): 70 | Shanks Color Hue h*ab % of Controls ([1]; trial MC-24/99, 30 mg/kg feed): 99% | Shanks Color Hue h*ab Value ([1]; trial MC-24/99, 30 mg/kg feed): 82 | Shanks Visual Classification ([1]; trial MC-24/99, 30 mg/kg feed): ++ | Skin Chroma C*ab % of Controls ([1]; trial MC-24/99, 30 mg/kg feed): 113% | Skin Chroma C*ab Value ([1]; trial MC-24/99, 30 mg/kg feed): 41 | Skin Color Hue h*ab % of Controls ([1]; trial MC-24/99, 30 mg/kg feed): 102% | Skin Color Hue h*ab Value ([1]; trial MC-24/99, 30 mg/kg feed): 80 | Skin Visual Classification ([1]; trial MC-24/99, 30 mg/kg feed): ++ | chroma C*a*b* values in the skin and in the shanks [1]: substantially enhanced | color hue h*a*b* in the skin and in the shanks [1]: not significantly changed | effectiveness in terms of concentration in the skin, and color intensity (chroma C*a*b*) in the skin and shanks [1]: significantly more effective | Deposition Rate Target Values % of Controls ([2]; average over doses, Table 7): 119% | Ethyl β-apo-8′-carotenoate Equivalents % of Controls ([2]; average over doses, Table 7): 106% | Deposition Rate % of Controls ([2]; average over doses): 119% | Deposition Rate Target Values ([2]; trial H-25/99, 5.0 mg/kg feed): 60.7% | Deposition Rate Target Values % of Controls ([2]; trial H-25/99, 5.0 mg/kg feed): 119% | Ethyl β-apo-8′-carotenoate Equivalents ([2]; trial H-25/99, 5.0 mg/kg feed): 16.6 mg/kg | Ethyl β-apo-8′-carotenoate Equivalents % of Controls ([2]; trial H-25/99, 5.0 mg/kg feed): 106% | Deposition Rate % of Controls ([2]; trial H-25/99, 5.0 mg/kg feed): 119% | Deposition Rate Value ([2]; trial H-25/99, 5.0 mg/kg feed): 61 | concentration in the egg yolk [2]: in the range of the control

CCCC(C)OC(=O)C(C)=CC=CC(C)=CC=CC=C(C)C=CC=C(C)C=CC1=C(C)CCCC1(C)C (stereo not drawn) [compound (19), 2-pentyl beta-apo-8′-carotenoate]
Shanks Chroma C*ab % of Controls ([1]; average over doses, Table 5): 105% | Shanks Color Hue h*ab % of Controls ([1]; average over doses, Table 5): 98% | Skin Chroma C*ab % of Controls ([1]; average over doses, Table 5): 106% | Skin Color Hue h*ab % of Controls ([1]; average over doses, Table 5): 97% | Shanks Chroma C*ab % of Controls ([1]; trial MC-24/99, 20 mg/kg feed): 108% | Shanks Chroma C*ab Value ([1]; trial MC-24/99, 20 mg/kg feed): 60 | Shanks Color Hue h*ab % of Controls ([1]; trial MC-24/99, 20 mg/kg feed): 98% | Shanks Color Hue h*ab Value ([1]; trial MC-24/99, 20 mg/kg feed): 82 | Shanks Visual Classification ([1]; trial MC-24/99, 20 mg/kg feed): + | Skin Chroma C*ab % of Controls ([1]; trial MC-24/99, 20 mg/kg feed): 106% | Skin Chroma C*ab Value ([1]; trial MC-24/99, 20 mg/kg feed): 34 | Skin Color Hue h*ab % of Controls ([1]; trial MC-24/99, 20 mg/kg feed): 96% | Skin Color Hue h*ab Value ([1]; trial MC-24/99, 20 mg/kg feed): 73 | Skin Visual Classification ([1]; trial MC-24/99, 20 mg/kg feed): + | Shanks Chroma C*ab % of Controls ([1]; trial MC-24/99, 30 mg/kg feed): 102% | Shanks Chroma C*ab Value ([1]; trial MC-24/99, 30 mg/kg feed): 65 | Shanks Color Hue h*ab % of Controls ([1]; trial MC-24/99, 30 mg/kg feed): 98% | Shanks Color Hue h*ab Value ([1]; trial MC-24/99, 30 mg/kg feed): 82 | Shanks Visual Classification ([1]; trial MC-24/99, 30 mg/kg feed): ++ | Skin Chroma C*ab % of Controls ([1]; trial MC-24/99, 30 mg/kg feed): 105% | Skin Chroma C*ab Value ([1]; trial MC-24/99, 30 mg/kg feed): 38 | Skin Color Hue h*ab % of Controls ([1]; trial MC-24/99, 30 mg/kg feed): 97% | Skin Color Hue h*ab Value ([1]; trial MC-24/99, 30 mg/kg feed): 76 | chroma C*a*b* values in the skin and in the shanks [1]: substantially enhanced | color hue h*a*b* in the skin and in the shanks [1]: not significantly changed | effectiveness in terms of concentration in the skin, and color intensity (chroma C*a*b*) in the skin and shanks [1]: significantly more effective | Deposition Rate Target Values % of Controls ([2]; average over doses, Table 7): 101% | Ethyl β-apo-8′-carotenoate Equivalents % of Controls ([2]; average over doses, Table 7): 94% | Deposition Rate % of Controls ([2]; average over doses): 101% | Deposition Rate Target Values ([2]; trial H-25/99, 5.0 mg/kg feed): 51.2% | Deposition Rate Target Values % of Controls ([2]; trial H-25/99, 5.0 mg/kg feed): 101% | Ethyl β-apo-8′-carotenoate Equivalents ([2]; trial H-25/99, 5.0 mg/kg feed): 14.6 mg/kg | Ethyl β-apo-8′-carotenoate Equivalents % of Controls ([2]; trial H-25/99, 5.0 mg/kg feed): 94% | Deposition Rate % of Controls ([2]; trial H-25/99, 5.0 mg/kg feed): 101% | Deposition Rate Value ([2]; trial H-25/99, 5.0 mg/kg feed): 51 | concentration in the egg yolk [2]: in the range of the control
